Experimental data from US12202866B2, “Therapeutic nanoconjugates and uses thereof” (UNIVERSITAT AUTÒNOMA DE BARCELONA (UAB), priority 2017, dated 2025).
Marks after values point to notes of the source that are not given here.

Tests used:
[1] = test system: CXCR4^+ cancer cells in SC SW1417 CRC tumor; assay: CXCR4+ cancer cell fraction in tumor tissue along time after single dose (anti-CXCR4 IHC); assay type: in vivo, mouse
Procedure: The SC SW1417 mouse model was used to determine the capacity of the nanoconjugate to induce DNA damage and apoptosis in tumor tissue, as well as the kinetics of CXCR4 expression in the membrane of tumor cells after treatment, regarding the fraction of CXCR4 expressing tumor cells and their intensity, since CXCR4^+ are the target cells for the nanoconjugate. […] The mice had been treated with equimolecular dosages of T22-GFP-H6, free oligo-FdU or Buffer, in which also were determined the levels of CXCR4 expression in tumor tissue at the different time points.

CXCR4^+ HeLa cells = assay: MTT cytotoxicity in CXCR4+ HeLa cells; assay type: cell-based, human; details: compared to free oligo-FdU
Procedure: Afterwards, a graphic displaying the linearized T22-GFP-H6-FdU dose-response trend line representation to compare cell viability for both compounds was constructed. Reduction of cell viability was also determined by optical microscope images of HeLa cells exposed to 1 μM […] for 48 h, as compared to T22-GFP-H6 or free FdU.

[2] = test system: subcutaneous CXCR4^+ SW1417 CRC tumor; assay: Tumor uptake and tumor cell internalization in subcutaneous CXCR4+ SW1417 CRC model; parameters: tumor uptake measured by fluorescence emission: dose or concentration left out as unconfirmed
Procedure: SC model was used to assess tumor uptake and nanoconjugate internalization and in vivo competition studies using co-administration of the CXCR4 antagonist AMD3100.
Two hours, 5 h and 24 h after the administration, the mouse was euthanized to resect the tumor and register ex vivo the intensity of the green fluorescence emitted by the nanoconjugated that biodistributed to tumor tissue using the IVIS® 200-Spectrum (Perkin Elmer, MA, USA). Following, tumor tissue samples were taken, processed and performed immunohistochemistry (IHC) to determine the presence or absence of the corresponding nanoconjugate into cytosol of tumor cells using an anti-GFP antibody (1:300; Santa-Cruz Biotechnology, CA, USA). […] Apoptosis was assessed determining nuclear condensation with Hoechst staining of tumor tissue sections and counting the number of condensed or defragmented nuclei in five high-power magnification fields in different sections for each tumor using the Olympus DP73 digital camera and the CellD Imaging 3.3 programme (Olympus, Tokyo, Japan).

[3] = test system: CXCR4^+ SW1417 CRC metastases; assay: Regression of established metastasis protocol, orthotopic CXCR4+ SW1417 CRC model; assay type: in vivo, Swiss nude mice
Procedure: Swiss nude mice were anesthetized with ketamine and xylazine, exteriorizing their cecum by a laparotomy. 2×106 CXCR4^+ SW1417-luci CRC cells (expressing luciferase, to allow ex vivo bioluminescent identification of metastatic foci in affected organs at the end of therapy) were suspended in […] of modified Eagle's medium, and loaded into a sterile micropipette. The cell suspension was slowly injected, under a binocular lens, with an approximate 30° angle and its tip introduced 5 mm into the cecal wall. Afterward, a slight pressure was applied with a cotton stick at approximately 2 mm from the injection point in the direction of the pipette axis. The pipette was pulled out and the area around the injection cleaned with 3% iodine. After injection, the gut was returned to the abdominal cavity and closed with surgical staples.
The orthotopic and metastatic CRC model developed in Swiss nude mice was employed to perform experiments of metastasis regression. […] The experiment was finished when the first animal of the buffer-treated-group had to be euthanized. See below the studied parameters to evaluate the antimetastatic effect.
At necropsy, the number and size of visible metastases in the organs where dissemination is expected in colorectal cancer (lymph nodes, liver, lung and peritoneum) were recorded for each mouse in all compared groups. Also the number of metastatic foci that emitted bioluminiscence (derived from the SW1417-luci CRC cells) were counted ex vivo in the target organs for metastasis, using the IVIS® 200-Spectrum (Perkin-Elmer). Samples for histopathological and immunohistochemical analyses were collected and processed. Two independent observers analyzed H&E stained samples to count the number and measure the size of all observed metastatic foci in three (metastasis prevention experiment) or six (regression of metastasis experiment) sections of each organ in each mouse. The images were taken and the measurements were performed with an Olympus microscope with the CellD Olympus software (v3.3). […] The obtained results were used to study a possible correlation between CXCR4^+ CCF and antimetastatic effect at the different sites.
In order to analyze differences between control and experimental groups of affected mice in metastatic rates at the different organs, Fisher's exact test was used. The Mann-Whitney test was used to compare number and size of metastatic foci in the affected organs among groups. All quantitative values were expressed as mean±SE and the statistical tests were performed using SPSS version 11.0 (IBM, New York, USA). Differences among groups was considered significant at a p<0.05.

CXCR4^+ SW1417 CRC cells = assay: Internalization in CXCR4+ SW1417 CRC cells (flow cytometry, AMD3100 competition); assay type: cell-based, human; parameters: internalization measured by fluorescence emission using flow cytometry: dose or concentration left out as unconfirmed; details: 1 hour exposure
Procedure: CXCR4+ SW1417-luc CRC cells were cultured in modified Eagle's medium (Gibco, Rockville, MD) supplemented with 10% fetal calf serum (Gibco), and incubated at 37° C. and 5% CO2 in a humidified atmosphere. […] Fluorescence emission was measured with a D detector (530/30 nm band pass filter). To assess specificity for CXCR4 receptor-mediated internalization, competition studies were performed incubating CRC SW1417 cells with the CXCR4 antagonist AMD3100 (Sigma Aldrich) in a 1:10 (protein:antagonist) molar ratio for 1 h before exposure to the nanoconjugate at […] for an additional hour.
The cells were washed in phosphate-buffered saline (Sigma-Aldrich). Live cells were recorded by TCS-SP5 confocal laser scanning microscopy (Leica Microsystems, Heidelberg, Germany) using a Plan Apo 63×/1.4 (oil HC×PL APO lambda blue) objective as described. To determine particle localization inside the cell, stacks of 10-20 sections forevery 0.5 μm of cell thickness were collected and three-dimensional models were generated using Imaris version 6.1.0 software (Bitplane, Zurich, Switzerland).

SW1417 CRC cells = assay: MTT cytotoxicity in SW1417 CRC cells; assay type: cell-based, human; details: compared to free oligo-FdU, 72 h, 1.0-1,000 nM

T22-GFP-H6-FdU: nanoconjugate of T22-GFP-H6 protein nanoparticle covalently bound via maleimide linker to thiol-functionalized pentameric floxuridine oligonucleotide (oligo-FdU)
CXCR4^+ CCF remaining in tumor tissue ([1]; 24 h after single dose): reduced | CXCR4^+ CCF remaining in tumor tissue ([1]; 48 h after single dose): undetectable | cytotoxicity in HeLa cells (CXCR4^+ HeLa cells): higher cytotoxicity than free oligo-FdU | tumor uptake measured by fluorescence emission ([2]; 5 h after injection, i.v.): selective tumor uptake | internalization into CXCR4^+ tumor cell cytosol by anti-GFP immunohistochemistry ([2]; single i.v. dose): internalized | LN foci, mean foci number per mouse ([3]; Regression protocol, 20 μg (or equimolecular) q3d x10 i.v., 6 histology sections, mean + SE): 0.4 ± 0.1 ^h,i | Lung foci, mean foci number per mouse ([3]; Regression protocol, 6 histology sections, mean + SE): 0.7 ± 0.4 ^k,l,m | regression of established lung metastasis ([3]; compared to free oligo-FdU): more potent than free oligo-FdU | primary tumor growth by in vivo bioluminescence emission ([3]; regression experiment, compared to buffer treated animals): significantly inhibited tumor growth | internalization measured by fluorescence emission using flow cytometry (CXCR4^+ SW1417 CRC cells): internalized | cytotoxicity measured by cell viability or phase-contrast microscopy (SW1417 CRC cells): significantly higher cytotoxicity than free oligo-FdU
